The record followed here is patent US11154563B2, “Immunoproteasome inhibitors” (Principia Biopharma Inc., priority 2017, dated 2021).

Common to all, as to assay type: biochemical
The target in test [1] is immunoproteasome LMP7/B5i subunit (Homo sapiens, UniProt P20618+P28062). Description: Caliper-based proteasome enzymatic activity assay, LMP7. The note with it: human recombinant immunoproteasome 0.3 nM, FAM-peptide substrate 1 μM, 3 h at rt. The method in brief: (§1)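 Recombinant human immunoproteasome or constitutive proteasome (0.3 nM) with 1 μM FAM-peptide in 20 mM Hepes pH 7.4, 0.015% SDS, 0.01% BSA; LMP7/β5c ran 3 h at rt and were stopped with 5 uM carfilzomib, LMP2 ran 2 h and was stopped with 6.7 uM ixazomib. Cleaved product quantified by microfluidic separation; IC50 from percent inhibition.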

In test [2] the target is constitutive proteasome β5c unit (Homo sapiens, UniProt P20618+P28074). The test can be described thus: Caliper-based proteasome enzymatic activity assay, β5c. The note with it: human recombinant constitutive proteasome 0.3 nM, FAM-peptide substrate 1 μM, 3 h at rt; read-out: β5c subunit IC50. The method in brief: as §1
Test [3] has as its target immunoproteasome LPM2/β1i subunit (Homo sapiens, UniProt P28065+P40306). Description: Caliper-based proteasome enzymatic activity assay, LMP2. Particulars: human recombinant immunoproteasome 0.3 nM, FAM-peptide substrate 1 μM, 2 h at rt. How it is done: A Caliper-based proteasome assay (Caliper Life Sciences, Hopkinton, Mass.) was used to measure inhibition of the immunoproteasome LMP7/B5i subunit, the immunoproteasome LPM2/β1i subunit, and the constitutive proteasome β5c unit for a compound of Formula (I). For LMP7 and β5c, serial dilutions of test compounds were incubated with either human recombinant immunoprotcasome or constitutive proteasome (0.3 nM enzyme) and a carboxyfluorescein (FAM)-labeled peptide substrate FAM-TYETFKSIMKKSPF-NH2 (1 μM) at it for 3 h. The reaction was then terminated with a buffer containing the known proteasome inhibitor carfilzomib at a concentration of 5 uM. For LMP2, serial dilutions of test compounds were incubated with human recombinant immunoproteasome proteasome (0.3 nM enzyme) and a carboxyfluorescein (FAM)-labeled peptide substrate FAM-[…]-NH2 (1 μM) at rt for 2 h. The reaction was then terminated with a buffer containing the known proteasome inhibitor ixazomib at a concentration of 6.7 uM. The reaction buffer was 20 mM Hepes pH 7.4, 0.01% bovine serum albumin, 0.015% SDS, 0.5 mM EDTA, 1%0/DMSO. The peptide cleavage reaction product was quantified on a Caliper LabChip 3000. Percent inhibition was calculated for each compound dilution and the concentration that produced 50% inhibition was calculated. This value is presented as the IC50.

Structures are written as SMILES.

Regarding `CC(C)(C)/C=C(\C#N)C(=O)N1C[C@@H](F)C[C@@H]1COC(=O)N[C@@H](Cc1ccccc1)B(O)O` [Example 102, ((R)-1-(((((2R,4S)-1-((E)-2-cyano-4,4-dimethylpent-2-enoyl)-4-fluoropyrrolidin-2-yl)methoxy)carbonyl)amino)-2-phenylethyl)boronic acid], the IC50 in test [1] came to 0.7 nM; in test [2], 1130 nM; in test [3], 4.49 µM.

For the molecule `CC(C)(C=C(C#N)C(=O)N1CCCC[C@@H]1COC(=O)N[C@@H](Cc1ccccc1)B(O)O)N1CCCCC1` [Example 30, ((R)-1-(((((R)-1-(2-cyano-4-methyl-4-(piperidin-1-yl)pent-2-enoyl)piperidin-2-yl)methoxy)carbonyl)amino)-2-phenylethyl)boronic acid], the half-maximal inhibitory concentration (IC50) is 16 nM in test [1], more than 5000 nM in test [2] and more than 5 µM in test [3].

Take `C=CC(=O)N1CCC[C@@H]1COC(=O)N[C@@H](Cc1ccccc1)B(O)O` [Example 14, ((R)-1-(((((R)-1-acryloylpyrrolidin-2-yl)methoxy)carbonyl)amino)-2-phenylethyl)boronic acid]: the IC50 in test [1] was 123 nM; in test [2] it was 4850 nM; in test [3] it was more than 5 µM.

For the molecule `CC(C)(C=C(C#N)C(=O)N1CCCC[C@@H]1COC(=O)N[C@@H](Cc1ccccc1)B(O)O)N1CCCC1` [Example 27], the IC50 is 11 nM in test [1], 3480 nM in test [2] and more than 5 µM in test [3].

In the case of `CC(C)(C=C(C#N)C(=O)N1CCC[C@@H]1COC(=O)N[C@@H](Cc1coc2ccccc12)B(O)O)N1CCOCC1` [Example 40, ((R)-2-(benzofuran-3-yl)-1-(((((R)-(2-cyano-4-methyl-4-morpholinopent-2-enoyl)pyrrolidin-2-yl)methoxy)carbonyl)amino)ethyl)boronic acid], the concentration for half-maximal inhibition (IC50) in test [1] is 1.3 nM; in test [2], 228 nM; in test [3] it was more than 5 µM.

As to `CC(C)C=C(C#N)C(=O)N1CCCC[C@H]1COC(=O)N[C@@H](Cc1ccccc1)B(O)O` [Example 13, ((R)-1-(((((S)-1 (2-cyano-4-methylpent-2-enoyl)piperidin-2-yl)methoxy)carbonyl)amino)-2-phenylethyl)boronic acid], the IC50 in test [1] is 38 nM; in test [2] it was more than 5000 nM; in test [3] it was 4.04 µM.

Turning to `CC(C)(C)C=C(C#N)C(=O)N1C[C@@H]2C[C@@H]2[C@H]1COC(=O)N[C@@H](Cc1ccccc1)B(O)O` [Example 38], the IC50 is 7 nM in test [1], more than 5000 nM in test [2] and more than 5 µM in test [3].

For `CC(C)(C=C(C#N)C(=O)N1C[C@@H]2C[C@@H]2[C@@H]1COC(=O)N[C@@H](Cc1ccccc1)B(O)O)N1CCOCC1` [Example 67, ((R)-1-(((((1S,2R,5R)-3-(2-cyano-4-methyl-4-morpholinopent-2-enoyl)-3-azabicyclo[3.1.0]hexan-2-yl)methoxy)carbonyl)amino)-2-phenylethyl)boronic acid], the IC50 is 1 nM in test [1], 2310 nM in test [2] and more than 5 µM in test [3].

As to `CC(C)(C)C=C(C#N)C(=O)N1C[C@H]2C[C@H]2[C@H]1COC(=O)N[C@@H](Cc1ccccc1)B(O)O` [Example 22, ((R)-1-(((((1R,2S,5S)-3-(2-cyano-4,4-dimethylpent-2-enoyl)-3-azabicyclo[3.1.0]hexan-2-yl)methoxy)carbonyl)amino)-2-phenylethyl)boronic acid], the results for the IC50 in test [1], in test [2] and in test [3] were 1.8 nM, more than 5000 nM and more than 5 µM, respectively.

`Cc1ccc(C[C@H](NC(=O)OC[C@H]2CCCCN2C(=O)C(C#N)=CC(C)(C)C)B(O)O)cc1` [Example 24, ((R)-1-(((((R)-1-(2-cyano-4,4-dimethylpent-2-enoyl)piperidin-2-yl)methoxy)carbonyl)amino)-2-(p-tolyl)ethyl)boronic acid]: the IC50 in test [1] was 3.7 nM; in test [2] it was 1390 nM; in test [3] it was more than 5 µM.

In the case of `CC(C)C[C@H](NC(=O)OC[C@H]1CCCCN1C(=O)C(C#N)=CC(C)(C)N1CCC(F)(F)C1)B(O)O` [Example 105, ((R)-1-(((((R)-1-(2-cyano-4-(3,3-difluoropyrrolidin-1-yl)-4-methylpent-2-enoyl)piperidin-2-yl)methoxy)carbonyl)amino)-3-methylbutyl)boronic acid], the IC50 in test [1] was 2.7 nM; in test [2] it was 1450 nM; in test [3] it was 2.16 µM.

Consider `CC(C)(C)C=C(C#N)C(=O)N1CCCC[C@@H]1COC(=O)N[C@@H](Cc1coc2ccccc12)B(O)O` [Example 25, ((R)-2-(benzofuran-3-yl)-1-(((((R)-1-(2-cyano-4,4-dimethylpent-2-enoyl)piperidin-2-yl)methoxy)carbonyl)amino)ethyl)boronic acid], for which the IC50 is 0.6 nM in test [1], 172 nM in test [2] and more than 5 µM in test [3].

As for `CC(C)(C)/C=C(\C#N)C(=O)N1CCCC[C@H]1COC(=O)N[C@@H](Cc1ccccc1)B(O)O` [Example 9, ((R)-1-(((((S)-1-((E)-2-cyano-4,4-dimethylpent-2-enoyl)piperidin-2-yl)methoxy)carbonyl)amino)-2-phenylethyl)boronic acid], the half-inhibitory concentration (IC50) in test [1] is 14 nM; in test [2], more than 5000 nM; in test [3] it was 3.65 µM.

`CC(C)(C=C(C#N)C(=O)N1CCCC[C@@H]1COC(=O)N[C@@H](Cc1ccc(C(F)(F)F)cc1)B(O)O)N1CCC(F)(F)C1` [Example 83, ((R)-1-(((((R)-1-(2-cyano-4-(3,3-difluoropyrrolidin-1-yl)-4-methylpent-2-enoyl)piperidin-2-yl)methoxy)carbonyl)amino)-2-(4-(trifluoromethyl)phenyl)ethyl)boronic acid]: the IC50 in test [1] was 4.4 nM; in test [2], 1220 nM; in test [3] it was more than 5 µM.

For the molecule `CC(C)(C=C(C#N)C(=O)N1CCCC[C@@H]1COC(=O)N[C@@H](Cc1ccc(Cl)cc1)B(O)O)N1CCC(F)(F)C1` [Example 79, ((R)-2-(4-chlorophenyl)-1-(((((R)-1-(2-cyano-4-(3,3-difluoropyrrolidin-1-yl)-4-methylpent-2-enoyl)piperidin-2-yl)methoxy)carbonyl)amino)ethyl)boronic acid], the half-inhibitory concentration (IC50) worked out at 2 nM in test [1] and 578 nM in test [2].

Regarding `CC(C)(C=C(C#N)C(=O)N1CCCC[C@@H]1COC(=O)N[C@@H](Cc1cccc2ccccc12)B(O)O)N1CCC(F)(F)C1` [Example 106, ((R)-1-(((((R)-1-(2-cyano-4-(3,3-difluoropyrrolidin-1-yl)-4-methylpent-2-enoyl)piperidin-2-yl)methoxy)carbonyl)amino)-2-(naphthalen-1-yl)ethyl)boronic acid], the results for the half-inhibitory concentration (IC50) in test [1] and in test [2] were 5.2 nM and 2240 nM, respectively.

Regarding `COC(=O)N1CCN(C(C)(C)C=C(C#N)C(=O)N2CCCC[C@@H]2COC(=O)N[C@@H](Cc2ccccc2)B(O)O)CC1` [Example 125, ((R)-1-(((((R)-1-(2-cyano-4-(4-(methoxycarbonyl)piperazin-1-yl)-4-methylpent-2-enoyl)piperidin-2-yl)methoxy)carbonyl)amino)-2-phenylethyl)boronic acid], the values for the IC50 in test [1] and in test [2] were 1.6 nM and 2860 nM, respectively.

The IC50 is the midpoint of a concentration-inhibition curve.
